Here are results for one compound from patent US20240360459A1 (Nankai University, priority 2023, published 2024).

This test has as its target Mtb ATP synthase (Mycobacterium tuberculosis, UniProt P9WPS1+P9WPV7). The test is described as follows: biochemical. Type of test: binding.

Structures are written as SMILES. pKd: −log10 of the molar value.

With `COc1nc2ccc(Br)cc2cc1[C@@H](c1ccccc1)[C@@](O)(CCN(C)C)c1cccc2ccccc12` [bedaquiline], the negative-log Kd (pKd) is 4.44.
